Measurements reported in PubChem BioAssay (NCI).
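Grown in 96-well plates, cells were treated for 48 hours with each compound at five concentrations. Insufficient inhibition: endpoint recorded as highest concentration tested. Here, GI50 denotes the concentration required for 50% inhibition of growth. TGI: total growth inhibition.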

Columns and labels:
Experiment in all cases: NCI anticancer screen, dose series, 48 h
786-0 renal = test system: 786-0 renal
A498 renal = test system: A498 renal
A549 NSCLC = test system: A549 NSCLC
ACHN renal = test system: ACHN renal
BT-549 breast = test system: BT-549 breast
CAKI-1 renal = test system: CAKI-1 renal
CCRF-CEM leukemia = test system: CCRF-CEM leukemia
COLO 205 colon = test system: COLO 205 colon
DU-145 prostate = test system: DU-145 prostate
EKVX NSCLC = test system: EKVX NSCLC
HCC-2998 colon = test system: HCC-2998 colon
HCT-116 colon = test system: HCT-116 colon
HCT-15 colon = test system: HCT-15 colon
HL-60(TB) leukemia = test system: HL-60(TB) leukemia
HOP-62 NSCLC = test system: HOP-62 NSCLC
HOP-92 NSCLC = test system: HOP-92 NSCLC
HS 578T breast = test system: HS 578T breast
HT29 colon = test system: HT29 colon
IGROV1 ovarian = test system: IGROV1 ovarian
K-562 leukemia = test system: K-562 leukemia
LOX IMVI melanoma = test system: LOX IMVI melanoma
M14 melanoma = test system: M14 melanoma
MALME-3M melanoma = test system: MALME-3M melanoma
MCF7 breast = test system: MCF7 breast
MDA-MB-231 breast = test system: MDA-MB-231 breast
MDA-MB-435 = test system: MDA-MB-435
MDA-MB-468 breast = test system: MDA-MB-468 breast
NCI-H226 lung = test system: NCI-H226 lung
NCI-H23 lung = test system: NCI-H23 lung
NCI-H460 lung = test system: NCI-H460 lung
NCI-H522 lung = test system: NCI-H522 lung
NCI/ADR-RES ovarian = test system: NCI/ADR-RES ovarian
OVCAR-3 ovarian = test system: OVCAR-3 ovarian
OVCAR-4 ovarian = test system: OVCAR-4 ovarian
OVCAR-5 ovarian = test system: OVCAR-5 ovarian
OVCAR-8 ovarian = test system: OVCAR-8 ovarian
PC-3 prostate = test system: PC-3 prostate
RPMI-8226 leukemia = test system: RPMI-8226 leukemia
RXF 393 renal = test system: RXF 393 renal
SF-268 CNS = test system: SF-268 CNS
SF-295 CNS = test system: SF-295 CNS
SF-539 CNS = test system: SF-539 CNS
SK-MEL-2 melanoma = test system: SK-MEL-2 melanoma
SK-MEL-28 melanoma = test system: SK-MEL-28 melanoma
SK-MEL-5 melanoma = test system: SK-MEL-5 melanoma
SK-OV-3 ovarian = test system: SK-OV-3 ovarian
SN12C renal = test system: SN12C renal
SNB-19 CNS = test system: SNB-19 CNS
SR leukemia = test system: SR leukemia
SW-620 colon = test system: SW-620 colon
T-47D breast = test system: T-47D breast
TK-10 renal = test system: TK-10 renal
U251 CNS = test system: U251 CNS
UACC-257 melanoma = test system: UACC-257 melanoma
UACC-62 melanoma = test system: UACC-62 melanoma
UO-31 renal = test system: UO-31 renal

How did the GI50 (786-0 renal) turn out when `COc1cc(/C=C/C(=O)c2ccc(S(=O)(=O)NCCNc3nc(Nc4ccc(F)cc4)nc(N(C)C)n3)cc2)cc(OC)c1OC` was run?
Its GI50 is 2.94 µM.

And the TGI (786-0 renal)?
Its TGI is 12 µM.

What about the GI50 (A498 renal) of the same compound?
Its GI50 is 11.3 µM.

What about the TGI (A498 renal) of the same compound?
The TGI was 23.8 µM.

And the GI50 (A549 NSCLC)?
The GI50 was 12.2 µM.

And the TGI (A549 NSCLC)?
Its TGI is 30.9 µM.

And the GI50 (ACHN renal)?
Its GI50 is 5.13 µM.

And the TGI (ACHN renal)?
Its TGI is 19.8 µM.

And the GI50 (BT-549 breast)?
The GI50 was 2.25 µM.

And the TGI (BT-549 breast)?
The TGI was 7.52 µM.

And the GI50 (CAKI-1 renal)?
The GI50 was 5.2 µM.

And the TGI (CAKI-1 renal)?
Its TGI is 35.6 µM.

What about the GI50 (CCRF-CEM leukemia) of the same compound?
The GI50 was 3.62 µM.

And the TGI (CCRF-CEM leukemia)?
The TGI was over 100 µM.

What about the GI50 (COLO 205 colon) of the same compound?
The GI50 was 4.78 µM.

What about the TGI (COLO 205 colon) of the same compound?
Its TGI is 19.2 µM.

And the GI50 (DU-145 prostate)?
Its GI50 is 10.9 µM.

And the TGI (DU-145 prostate)?
Its TGI is 34.3 µM.

And the GI50 (EKVX NSCLC)?
The GI50 was 4.85 µM.

What about the TGI (EKVX NSCLC) of the same compound?
The TGI was 16.3 µM.

And the GI50 (HCC-2998 colon)?
The GI50 was 1.62 µM.

What about the TGI (HCC-2998 colon) of the same compound?
Its TGI is 3 µM.

What about the GI50 (HCT-116 colon) of the same compound?
The GI50 was 1.77 µM.

And the TGI (HCT-116 colon)?
The TGI was 3.68 µM.

What about the GI50 (HCT-15 colon) of the same compound?
The GI50 was 1.8 µM.

What about the TGI (HCT-15 colon) of the same compound?
The TGI was 3.44 µM.

And the GI50 (HL-60(TB) leukemia)?
The GI50 was 2.64 µM.

What about the TGI (HL-60(TB) leukemia) of the same compound?
The TGI was 9.4 µM.

What about the GI50 (HOP-62 NSCLC) of the same compound?
Its GI50 is 14.1 µM.

What about the TGI (HOP-62 NSCLC) of the same compound?
The TGI was 29 µM.

What about the GI50 (HOP-92 NSCLC) of the same compound?
The GI50 was 11.5 µM.

And the TGI (HOP-92 NSCLC)?
The TGI was 37.7 µM.

And the GI50 (HS 578T breast)?
Its GI50 is 8.24 µM.

What about the TGI (HS 578T breast) of the same compound?
Its TGI is 46.7 µM.

And the GI50 (HT29 colon)?
The GI50 was 1.93 µM.

What about the TGI (HT29 colon) of the same compound?
The TGI was 3.53 µM.

And the GI50 (IGROV1 ovarian)?
Its GI50 is 16.1 µM.

What about the TGI (IGROV1 ovarian) of the same compound?
Its TGI is 31 µM.

And the GI50 (K-562 leukemia)?
Its GI50 is 2.73 µM.

What about the TGI (K-562 leukemia) of the same compound?
The TGI was over 100 µM.

And the GI50 (LOX IMVI melanoma)?
The GI50 was 1.71 µM.

And the TGI (LOX IMVI melanoma)?
Its TGI is 3.1 µM.

What about the GI50 (M14 melanoma) of the same compound?
Its GI50 is 3.28 µM.

What about the TGI (M14 melanoma) of the same compound?
The TGI was 11.5 µM.

And the GI50 (MALME-3M melanoma)?
Its GI50 is 11.9 µM.

What about the TGI (MALME-3M melanoma) of the same compound?
The TGI was 25.7 µM.

What about the GI50 (MCF7 breast) of the same compound?
The GI50 was 1.96 µM.

And the TGI (MCF7 breast)?
Its TGI is 4.28 µM.

What about the GI50 (MDA-MB-231 breast) of the same compound?
Its GI50 is 4.41 µM.

And the TGI (MDA-MB-231 breast)?
The TGI was 21 µM.

What about the GI50 (MDA-MB-435) of the same compound?
Its GI50 is 2.8 µM.

What about the TGI (MDA-MB-435) of the same compound?
Its TGI is 7.68 µM.

And the GI50 (MDA-MB-468 breast)?
Its GI50 is 2 µM.

And the TGI (MDA-MB-468 breast)?
Its TGI is 4.58 µM.

And the GI50 (NCI-H226 lung)?
Its GI50 is 4.47 µM.

What about the TGI (NCI-H226 lung) of the same compound?
Its TGI is 31.9 µM.

And the GI50 (NCI-H23 lung)?
Its GI50 is 3.03 µM.

What about the TGI (NCI-H23 lung) of the same compound?
Its TGI is 10.9 µM.

And the GI50 (NCI-H460 lung)?
The GI50 was 5.12 µM.

What about the TGI (NCI-H460 lung) of the same compound?
Its TGI is 17.8 µM.

And the GI50 (NCI-H522 lung)?
Its GI50 is 6.45 µM.

What about the TGI (NCI-H522 lung) of the same compound?
The TGI was 20.1 µM.

What about the GI50 (NCI/ADR-RES ovarian) of the same compound?
Its GI50 is 3.38 µM.

What about the TGI (NCI/ADR-RES ovarian) of the same compound?
The TGI was 13.4 µM.

And the GI50 (OVCAR-3 ovarian)?
Its GI50 is 6.18 µM.

And the TGI (OVCAR-3 ovarian)?
Its TGI is 26.4 µM.

And the GI50 (OVCAR-4 ovarian)?
The GI50 was 8.02 µM.

And the TGI (OVCAR-4 ovarian)?
The TGI was 63.4 µM.

What about the GI50 (OVCAR-5 ovarian) of the same compound?
The GI50 was 12.9 µM.

What about the TGI (OVCAR-5 ovarian) of the same compound?
The TGI was 26.8 µM.

What about the GI50 (OVCAR-8 ovarian) of the same compound?
Its GI50 is 11.1 µM.

What about the TGI (OVCAR-8 ovarian) of the same compound?
The TGI was 34.7 µM.

And the GI50 (PC-3 prostate)?
Its GI50 is 3.22 µM.

And the TGI (PC-3 prostate)?
The TGI was 30.7 µM.

And the GI50 (RPMI-8226 leukemia)?
The GI50 was 2.5 µM.

What about the TGI (RPMI-8226 leukemia) of the same compound?
Its TGI is 7.69 µM.

And the GI50 (RXF 393 renal)?
The GI50 was 1.45 µM.

What about the TGI (RXF 393 renal) of the same compound?
The TGI was 3.12 µM.

What about the GI50 (SF-268 CNS) of the same compound?
The GI50 was 11.7 µM.

What about the TGI (SF-268 CNS) of the same compound?
Its TGI is 63.7 µM.

What about the GI50 (SF-295 CNS) of the same compound?
Its GI50 is 2.16 µM.

And the TGI (SF-295 CNS)?
Its TGI is 4.73 µM.

And the GI50 (SF-539 CNS)?
Its GI50 is 1.71 µM.

And the TGI (SF-539 CNS)?
Its TGI is 3.18 µM.

And the GI50 (SK-MEL-2 melanoma)?
Its GI50 is 13.5 µM.

And the TGI (SK-MEL-2 melanoma)?
Its TGI is 28.3 µM.

And the GI50 (SK-MEL-28 melanoma)?
Its GI50 is 6.13 µM.

And the TGI (SK-MEL-28 melanoma)?
Its TGI is 19.3 µM.

And the GI50 (SK-MEL-5 melanoma)?
Its GI50 is 3.39 µM.

What about the TGI (SK-MEL-5 melanoma) of the same compound?
Its TGI is 12.8 µM.

And the GI50 (SK-OV-3 ovarian)?
Its GI50 is 21.8 µM.

What about the TGI (SK-OV-3 ovarian) of the same compound?
Its TGI is 58.9 µM.

And the GI50 (SN12C renal)?
Its GI50 is 5.71 µM.

And the TGI (SN12C renal)?
The TGI was 21.5 µM.

What about the GI50 (SNB-19 CNS) of the same compound?
Its GI50 is 11.2 µM.

What about the TGI (SNB-19 CNS) of the same compound?
The TGI was 23.4 µM.

And the GI50 (SR leukemia)?
The GI50 was 2.42 µM.

What about the TGI (SR leukemia) of the same compound?
Its TGI is 7.6 µM.

And the GI50 (SW-620 colon)?
Its GI50 is 1.95 µM.

And the TGI (SW-620 colon)?
The TGI was 3.8 µM.

What about the GI50 (T-47D breast) of the same compound?
Its GI50 is 3.48 µM.

What about the TGI (T-47D breast) of the same compound?
The TGI was 51.3 µM.

What about the GI50 (TK-10 renal) of the same compound?
The GI50 was 13.1 µM.

What about the TGI (TK-10 renal) of the same compound?
The TGI was 40.9 µM.

And the GI50 (U251 CNS)?
Its GI50 is 1.81 µM.

What about the TGI (U251 CNS) of the same compound?
The TGI was 3.54 µM.

What about the GI50 (UACC-257 melanoma) of the same compound?
Its GI50 is 15.1 µM.

And the TGI (UACC-257 melanoma)?
Its TGI is 31.4 µM.

What about the GI50 (UACC-62 melanoma) of the same compound?
The GI50 was 8.28 µM.

And the TGI (UACC-62 melanoma)?
Its TGI is 21.4 µM.

What about the GI50 (UO-31 renal) of the same compound?
The GI50 was 4.45 µM.

And the TGI (UO-31 renal)?
The TGI was 17 µM.
